We go through 6 molecules from US5132299A, “11β-phenyl-4,9,15-estratrienes, their manufacture and pharmaceutical preparations containing same” (Schering Aktiengesellschaft, priority 1987, dated 1992).

One test relates to pregnant rats. As to the kind of experiment: Abortive test with pregnant rats (antigestagenic effect). Format: in vivo, rat. The conditions noted are these: for Abortion Rate n aborting/n treated rats: d5-d7 p.c., autopsy d9 p.c.; for abortive effect in words: dose of 0.3 mg, pregnant rats s.c.; for factor by which more effective than RU 486 (C) in the abortive test: pregnant rats, s.c. The protocol:
The abortifacient activity was determined to define the antigestagenic effect. The tests were carried out on female rats with a weight of approx. 200 g. […] The date on which sperm are detected was considered the 1st day of pregnancy (=dl p.c.). The animals were treated with the substance to be tested or the solvent after nidation of the blastocysts from d5 p.c. to d7 p.c. The animals were killed on d9 p.c. and the uteri were checked for implants and points of resorption. Photos were made of all uteri. Lack of implants was considered as abortions. The test substances were dissolved in a mixture of benzylbenzoate and castor oil (ratio of 1:4). The vehicle volume per individual dose amounted to 0.2 ml. Treatment was subcutaneous (s.c.).

A further test concerns guinea pigs. As to the kind of experiment: Abortive effect in guinea pigs. The format is in vivo, guinea pig. As to the method: The abortive effect of the substances in accordance with the invention (A) and (B) was also determined using guinea pigs as test animals.
The test results gained from guinea pigs permit more reliable predictions to be made on the abortive activity of the tested compound(s) to be expected in the case of humans than is permitted by the data gained with rats.

The test system of test [1] is tyrosine amino-transferase (TAT) in RHC (Rat Hepatoma Cells). In words: Antiglucocorticoid activity: tyrosine amino-transferase (TAT) induction in RHC cultures. Format: cell-based. Conditions: for antiglucocorticoid activity as % of the activity of the standard compound RU 486 (C): TAT test in RHC, simultaneous treatment with corticoid; for EC (max): Rattus norvegicus, read-out: concentration of max. TAT activity (induction). As to the method: To identify the antiglucocorticoid activity, the effect of the substances in accordance with the invention on the tyrosine amino-transferase was determined. The test system is based on measurement of the activity of the liver enzyme tyrosine amino-transferase (TAT) in cultures of RHC (Rat Hepatoma Cells). The enzyme catalyzes the first step in the metabolism of tyrosine and can be induced by glucocorticoids both in the liver and in hepatoma cells. The activity is easy to measure in raw extracts (Granner and Tomkins, (1970) Meth. Enzymol. 15, 633). The enzyme converts the amino group of tyrosine to 2-oxoglutaric acid. Glutaminic acid and p-hydroxy-phenylpyruvate are formed. […] Its measured absorption lies at 331 nm. […] The activity can be stimulated by a factor of 4 to 6 above basal value. Simultaneous treatment with corticoid and antiglucocorticoid leads to a decrease in the TAT activity.

In a further test the target is T1, gestagen receptor (Oryctolagus cuniculus, UniProt P06186).
T1 sequence (P06186 1-930): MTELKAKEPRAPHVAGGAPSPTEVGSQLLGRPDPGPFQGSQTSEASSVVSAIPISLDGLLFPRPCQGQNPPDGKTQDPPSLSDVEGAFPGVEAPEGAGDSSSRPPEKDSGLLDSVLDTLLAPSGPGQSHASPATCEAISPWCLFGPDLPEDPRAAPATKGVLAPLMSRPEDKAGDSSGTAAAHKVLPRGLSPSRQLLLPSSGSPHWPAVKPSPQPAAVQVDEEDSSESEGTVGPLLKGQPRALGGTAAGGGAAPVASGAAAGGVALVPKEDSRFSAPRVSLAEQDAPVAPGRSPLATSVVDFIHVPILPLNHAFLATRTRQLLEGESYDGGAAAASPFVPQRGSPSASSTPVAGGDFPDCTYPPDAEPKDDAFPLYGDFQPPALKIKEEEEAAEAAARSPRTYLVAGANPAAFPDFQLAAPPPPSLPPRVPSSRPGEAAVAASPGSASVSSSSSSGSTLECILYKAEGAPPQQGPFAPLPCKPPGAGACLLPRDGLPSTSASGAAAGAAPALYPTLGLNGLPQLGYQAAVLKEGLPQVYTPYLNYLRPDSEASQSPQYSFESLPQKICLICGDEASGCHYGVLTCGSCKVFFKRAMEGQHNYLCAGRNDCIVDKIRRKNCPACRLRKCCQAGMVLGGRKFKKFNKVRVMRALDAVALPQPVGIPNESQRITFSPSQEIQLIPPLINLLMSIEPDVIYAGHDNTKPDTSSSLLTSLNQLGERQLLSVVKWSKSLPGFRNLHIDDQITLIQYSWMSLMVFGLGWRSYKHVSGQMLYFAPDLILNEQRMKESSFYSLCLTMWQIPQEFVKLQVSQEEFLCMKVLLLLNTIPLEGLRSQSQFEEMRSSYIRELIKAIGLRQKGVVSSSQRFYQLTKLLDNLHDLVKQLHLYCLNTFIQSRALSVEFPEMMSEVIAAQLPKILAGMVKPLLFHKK
As to the kind of experiment: Gestagen receptor binding test (3H-progesterone displacement, rabbit uterus cytosol). The protocol: The affinity of the compounds in accordance with the invention to the gestagen receptor is examined with the gestagen receptor binding test. In this test the displacement of the agonist by the antagonist is measured. Cytosol from rabbit uterus homogenate which contains the receptor molecule (a protein) is used in the test. This binds progesterone with high affinity and low capacity. When these receptors are charged with ^3 H-progesterone in the presence of the unlabeled substance to be tested, the extent to which the ^3 H-progesterone is displaced from the receptor depends on the concentration and binding affinity of the compound to be tested. After separation of the receptor-bound progesterone from the non-bound progesterone, the binding can be determined as a percentage and this value plotted against the log of the molar concentration of the test substance. Characteristic dosage-dependent displacement curves are obtained and the concentration of the test substance can be determined which is required to oust the reference substance […] from the receptor.

Take `CC#C[C@]1(O)C=C[C@H]2[C@@H]3CCC4=CC(=O)CCC4=C3[C@@H](c3ccc(C(C)=O)cc3)C[C@@]21C` [A, 11β-(4-acetylphenyl)-17β-hydroxy-17α-(prop-1-inyl)-4,9,15-estratrien-3-one]: the “Abortion Rate n aborting/n treated rats” value in the test with pregnant rats (0.3 mg/animal/day s.c.), in the test on pregnant rats (1.0 mg/animal/day s.c.) and with pregnant rats (3.0 mg/animal/day s.c.) was 4/4 in each case. For the same molecule, in the test on pregnant rats, the “abortive effect in words” value was “fully abortive”. In the test with pregnant rats, the “factor by which more effective than RU 486 (C) in the abortive test” value came to 10. For the same molecule, the “abortifacient effect compared with compound (D)” value in the test with guinea pigs is listed as “strikingly higher abortifacient effect”. For the same molecule, the “antiglucocorticoid activity as % of the activity of the standard compound RU 486 (C)” value in test [1] is reported as 20-50%. For the same molecule, the “strength in the gestagen receptor binding test compared with standard compound (C)” value at gestagen receptor is given as “much stronger”.

Regarding `C#CC[C@]1(O)C=C[C@H]2[C@@H]3CCC4=CC(=O)CCC4=C3[C@@H](c3ccc(C(C)=O)cc3)C[C@@]21C` [B, 11β-(4-acetylphenyl)-17β-hydroxy-17α-(prop-2-inyl)-4,9,15-estratrien-3-one], the “Abortion Rate n aborting/n treated rats” value with pregnant rats (0.3 mg/animal/day s.c.), in the test with pregnant rats (1.0 mg/animal/day s.c.) and with pregnant rats (3.0 mg/animal/day s.c.) was 4/4 in each case. Also, the “abortive effect in words” value in the test on pregnant rats was “fully abortive”. The “factor by which more effective than RU 486 (C) in the abortive test” value with pregnant rats worked out at 10. In the test with guinea pigs, the “abortifacient effect compared with compound (D)” value is given as “strikingly higher abortifacient effect”. Further, the “antiglucocorticoid activity as % of the activity of the standard compound RU 486 (C)” value in test [1] is given as “less than 1%”. Besides, at gestagen receptor, the “strength in the gestagen receptor binding test compared with standard compound (C)” value is “about the same strength”.

Regarding `C[C@]12CCC(=O)C=C1CC[C@@H]1[C@@H]2[C@@H](O)C[C@@]2(C)[C@H]1CC[C@]2(O)C(=O)CO` [cortisol, reference compound], the EC (max) in test [1] is 1 µM.

Consider `CC#C[C@]1(O)CC[C@H]2[C@@H]3CCC4=CC(=O)CCC4=C3[C@@H](c3ccc(C(C)=O)cc3)C[C@@]21C` [D, 11β-(4-acetylphenyl)-17β-hydroxy-17α-(prop-1-inyl)-4,9-estradien-3-one, reference compound], for which the “Abortion Rate n aborting/n treated rats” value in the test with pregnant rats (0.3 mg/animal/day s.c.), with pregnant rats (1.0 mg/animal/day s.c.) and in the test on pregnant rats (3.0 mg/animal/day s.c.) was 4/4 throughout.

For the molecule `CC#C[C@]1(O)CC[C@H]2[C@@H]3CCC4=CC(=O)CCC4=C3[C@@H](c3ccc(N(C)C)cc3)C[C@@]21C` [C, 11β-(4-dimethylaminophenyl)-17β-hydroxy-17α-(prop-1-inyl)-4,9,(10)-estradien-3-one, reference compound], the “Abortion Rate n aborting/n treated rats” value is 0/4 in the test with pregnant rats (0.3 mg/animal/day s.c.), 2/4 in the test with pregnant rats (1.0 mg/animal/day s.c.) and 4/4 with pregnant rats (3.0 mg/animal/day s.c.).

For the molecule `C[C@@H]1C[C@H]2[C@@H]3CCC4=CC(=O)C=C[C@]4(C)[C@@]3(F)[C@@H](O)C[C@]2(C)[C@@]1(O)C(=O)CO` [dexamethasone, reference compound], the EC (max) in test [1] was 0.1 µM.
